Assays:
[1] = test system: mouse embryonic fibroblasts (MEFs); assay: Dox-inducible lentiviral reprogramming of fibroblasts to iPSC colonies; format: cell-based
From the text: We reasoned that inappropriate expression of reprogramming genes during development could inhibit embryonic and postnatal development. Therefore, we designed a drug-inducible lentiviral reprogramming strategy to achieve tight control of transgene expression in iPSCs and their derivatives (FIG. 1b)^19. The four original reprogramming factors (Oct4, Sox2, Klf4 and cMyc) were placed under control of the tetO promoter, which is activated by the reverse tetracycline transactivator (rtTA) protein in the presence of the tetracycline analog doxycycline (dox). We used an enhanced version of the rtTA transcriptional activator protein (rtTAM2.2) that induces higher gene expression levels than the rtTAM2 protein^20. To promote complete reprogramming and facilitate isolation of fully reprogrammed iPSCs we exposed MEFs to the histone deacetylase inhibitor valproic acid (VPA), which has been reported to enhance reprogramming efficiency^21 and to select against incompletely reprogrammed cells by inhibiting cell division^22 (Supplementary methods).
Generation of iPSCs. Mouse embryonic fibroblasts (MEFs) were prepared from Pcdh21/Cre-Z/EG (iMZ lines) or Nex/Cre-Z/EG (iNZ lines) E13.5 embryos. Generation of iMZ lines: After 24 hours in culture, individual wells of ˜300,000 MEFs were transduced with lentiviruses (day 1) and split 1:2 (day 2) and 1:3 (day 3) to generate 6 wells of transduced MEFs. On post-transduction day 4, dox (10 μg/ml) was added to four wells to induce expression of reprogramming genes; three of these wells were also treated with VPA (1.9 mM). The remaining two wells were treated with nothing, or VPA alone. To maintain conditions for optimal MEF growth and viability, on post-transduction day five, the three dox+VPA wells were expanded into a 15 cm^2 dish while the other three conditions were expanded to 10 cm^2 dishes. […] On day 14, additional colonies were isolated, of which 12 were expanded (lines iMZ-9-21) and characterized further. […] On post-transduction day 17, all putative iPSC lines were transferred to fresh feeders in single 96 well plates. Cell lines were expanded into two wells on post-transduction day 21. Cells were maintained in dox+VPA until post-transduction day 23, when both were removed. All cell lines appeared to maintain ESC like morphology and proliferation rates. Lines were expanded to 24 well plates on day 24. Subsequently, cell lines were banked and maintained as described in the cell culture conditions section. Generation of iNZ lines: Initial reprogramming conditions were identical to those of iMZ lines except that cells were split 1:2 on post-transduction day 3 to generate four wells (dox+VPA, dox only, VPA only and no treatment). Cells were split once after dox and VPA addition. […]

[2] = test system: Gtl2/Dlk1 (Gtl2 locus); assay: Methylation / activity of the Gtl2 locus in iPS cell lines derived with or without VPA; format: cell-based, mouse; details: VPA+ (n = 15 cell lines)
From the text: In some embodiments, the induction conditions include contacting the cells with a histone deacetylase inhibitor or other compound that alters epigenetic marks. […] See, Stadfeld, et al., Nature. 465(7295):175-81 (2010); Liu et al., J Biol Chem. 285(25):19483-90 (2010). Normal ESCs express genes from one of the two parental chromosomes. Previous non-fully pluripotent IPSC lines have reduced expression from both parental Gtl loci by allowing extra epigenetic marking. These iPSC lines have methylated both Gtl2 loci and also may have distinct histone acetylation and methylation that turns off gene expression which correlates with or causes failure to generate live animals. The methods described herein produce a high frequency of cell lines that generate mice and these lines have an active and properly imprinted (i.e., hemi-methylated and histone acetylated) Gtl2 locus. When the epigenetic remodeling compound, VPA is removed from the method but no other variables are changed, the Gtl2 locus is no longer active or properly imprinted in the majority of cell lines. Therefore inclusion of VPA, or other histone deacetylase inhibitors or epigenetic remodeling compounds, regulates imprinting of the Gtl2 locus and other genomic regions that control pluripotency.

| Structure (SMILES) | colony emergence in the absence of dox ([1]; iMZ MEFs, VPA alone 1.9 mM, no dox) | % iPS Cell Lines with Active Gtl2 Locus: % Locus Unmethylated High (>40%) ([2]; share of lines in class High (>40%)) | % iPS Cell Lines with Active Gtl2 Locus: % Locus Unmethylated Low (1-10%) ([2]; share of lines in class Low (1-10%)) | % iPS Cell Lines with Active Gtl2 Locus: % Locus Unmethylated Medium (10-40%) ([2]; share of lines in class Medium (10-40%)) | % iPS Cell Lines with Active Gtl2 Locus: % Locus Unmethylated Negative (not detectable) ([2]; share of lines in class Negative (not detectable)) | post-transduction day on which colonies were observed ([1]; iMZ lines, Pcdh21/Cre-Z/EG MEFs, dox 10 μg/ml, VPA 1.9 mM from day 4) | post-transduction day on which colonies were observed ([1]; iNZ lines, Nex/Cre-Z/EG MEFs) | colonies observed on day 14 ([1]; iNZ lines, Nex/Cre-Z/EG MEFs, post-transduction day 14) |
| --- | --- | --- | --- | --- | --- | --- | --- | --- |
| CCCC(CCC)C(=O)O [VPA, valproic acid] | No colonies emerged | 27% | 40% | 33% | 0% | – | – | – |
| C[C@H]1c2cccc(O)c2C(=O)C2=C(O)[C@]3(O)C(=O)C(C(N)=O)=C(O)[C@@H](N(C)C)[C@@H]3[C@@H](O)[C@@H]21 [dox, doxycycline] | – | – | – | – | – | 11 | 11 | 19 |

Source: patent US20120178158A1, “ADULT ANIMALS GENERATED FROM INDUCED PLURIPOTENT CELLS” (The Scripps Research Institute, priority 2009, published 2012)
